Results as given in ChEMBL document CHEMBL3739375, “Identifying farnesoid X receptor agonists by naive Bayesian and recursive partitioning approaches” (Medchemcomm, 2015).

What was measured:
[1] = target: T1, Bile acid receptor (Homo sapiens) (UniProt Q96RI1); assay: (§1) Agonist activity at human farnesoid-X-receptor expressed in HEK293T cells co-expressing human RXRalpha assessed as receptor activation after 20 hrs by dual luciferase reporter assay; assay type: cell-based; settings: HEK-293T
T1 sequence (whole entry): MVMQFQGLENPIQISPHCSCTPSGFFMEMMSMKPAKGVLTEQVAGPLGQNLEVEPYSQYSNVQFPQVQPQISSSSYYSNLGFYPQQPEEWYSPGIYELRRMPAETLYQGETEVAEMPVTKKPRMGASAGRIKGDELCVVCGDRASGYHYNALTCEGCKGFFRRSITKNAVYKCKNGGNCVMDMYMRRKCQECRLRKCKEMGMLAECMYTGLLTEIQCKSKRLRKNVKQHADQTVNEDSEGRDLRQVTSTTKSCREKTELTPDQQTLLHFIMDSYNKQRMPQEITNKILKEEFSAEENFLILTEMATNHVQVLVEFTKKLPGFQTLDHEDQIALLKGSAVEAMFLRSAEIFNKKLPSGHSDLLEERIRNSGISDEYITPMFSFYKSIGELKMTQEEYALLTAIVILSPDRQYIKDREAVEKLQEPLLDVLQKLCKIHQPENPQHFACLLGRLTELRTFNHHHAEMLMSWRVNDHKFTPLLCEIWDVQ

Bile acid receptor = target: T2, Bile acid receptor (Homo sapiens, UniProt Q96RI1); assay: as §1; assay type: cell-based, HEK-293T
T2 sequence (Q96RI1 whole entry): T1 sequence (whole entry)

Activity [1] | EC50 (Bile acid receptor) [µM] | SMILES
Dose-dependent effect | 15.4 | CC(C)(C)OC(=O)/N=C(\NCCCc1cc(C(=O)NCc2ccncc2)no1)NC(=O)OC(C)(C)C
Dose-dependent effect | 29.9 | CC(C)(C)OC(=O)/N=C(/NCCc1cc(NC(=O)Nc2ccncc2)no1)NC(=O)OC(C)(C)C
